Measured values: US20250049798A1, “WEE1 PROTEIN KINASE DEGRADATION AGENT AND USE THEREOF” (HANGZHOU GLUBIO PHARMACEUTICAL CO. LTD., priority 2021, published 2025)

Biological target: HiBiT tagged Wee1 (Homo sapiens, UniProt P30291)
Test: Wee1 protein degradation assay (HiBiT assay)
Format: cell-based
Conditions: engineered HT-1080 cells, 20 hours; for Dmax: maximum percentage of Wee1 degradation, read-out: HiBiT Wee1: Dmax

Sequence of HiBiT tagged Wee1 (P30291 whole entry): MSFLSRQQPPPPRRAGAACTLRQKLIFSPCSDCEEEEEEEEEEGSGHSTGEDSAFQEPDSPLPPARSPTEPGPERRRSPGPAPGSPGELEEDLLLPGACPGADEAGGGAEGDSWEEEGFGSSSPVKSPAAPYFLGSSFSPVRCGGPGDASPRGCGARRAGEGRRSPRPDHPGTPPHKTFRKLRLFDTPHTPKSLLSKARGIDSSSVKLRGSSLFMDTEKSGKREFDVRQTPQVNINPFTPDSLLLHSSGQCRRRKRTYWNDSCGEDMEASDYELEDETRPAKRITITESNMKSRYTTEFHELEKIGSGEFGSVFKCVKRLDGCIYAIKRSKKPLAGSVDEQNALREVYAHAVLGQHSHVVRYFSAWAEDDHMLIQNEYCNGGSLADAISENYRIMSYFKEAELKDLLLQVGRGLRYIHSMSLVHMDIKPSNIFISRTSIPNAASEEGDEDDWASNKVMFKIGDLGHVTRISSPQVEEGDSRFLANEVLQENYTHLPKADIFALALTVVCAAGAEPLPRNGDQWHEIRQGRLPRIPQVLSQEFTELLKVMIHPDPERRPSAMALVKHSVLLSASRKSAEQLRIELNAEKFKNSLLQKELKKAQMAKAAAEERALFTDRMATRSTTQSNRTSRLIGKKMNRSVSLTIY

Row | SMILES | DC50 [nM] | Dmax [%]
1 | C=CCn1c(=O)c2cnc(Nc3ccc(C4CCN(C5CN(c6ccc(NC7CCC(=O)NC7=O)cc6F)C5)CC4)cc3)nc2n1-c1cccc(C(C)(C)O)n1 (stereo not drawn) [Compound 148] | < 100 | > 75
2 | C=CCn1c(=O)c2cnc(Nc3ccc(N4CCC(CN5CCN(c6ccc7c(N8CCC(=O)NC8=O)nn(C)c7c6)CC5)CC4)cc3)nc2n1-c1ccc2c(n1)[C@](C)(O)CC2 [Compound 127] | < 100 | > 75
3 | C=CCn1c(=O)c2cnc(Nc3ccc(C4CCN(CC5CCN(c6ccc(NC7CCC(=O)NC7=O)cc6F)CC5)CC4)cc3)nc2n1-c1cccc(C(C)(C)O)n1 (stereo not drawn) [Compound 73] | < 100 | > 75
4 | COc1ccc(C(=O)N2CCC3(CCN(Cc4ccc(Nc5ncc6c(=O)n(-c7c(Cl)cccc7Cl)c7nccn7c6n5)cc4)CC3)CC2)cc1N1CCC(=O)NC1=O [Compound 59] | > 1000 | < 50
5 | C=CCn1c(=O)c2cnc(Nc3ccc(N4CCN(CC5CCN(c6ccc(NC7CCC(=O)NC7=O)cn6)CC5)CC4)cc3)nc2n1-c1ccc2c(n1)[C@@](O)(CC)CC2 (stereo partly drawn) [Compound 136] | < 100 | > 75
6 | C=CCn1c(=O)c2cnc(Nc3ccc(N4CCN(CC5CCN(Cc6cccc7c6n(C)c(=O)n7C6CCC(=O)NC6=O)CC5)CC4)cc3)nc2n1-c1cccc(C(C)(C)O)n1 (stereo not drawn) [Compound 64] | < 100 | 50 to 75
7 | C=CCn1c(=O)c2cnc(Nc3ccc(N4CCN(CC5CCN(c6ccc(NC7CCC(=O)NC7=O)cc6F)CC5)CC4)cc3)nc2n1-c1cccc(C(C)(C)O)n1 (stereo not drawn) [Compound 102-A] | < 100 | > 75
8 | C=CCn1c(=O)c2cnc(Nc3ccc4c(c3)CN(CCCCc3cccc5c3CN(C3CCC(=O)NC3=O)C5=O)CC4)nc2n1-c1cccc(C(C)(C)O)n1 (stereo not drawn) [Compound 49] | > 1000 | < 50
9 | C=CCn1c(=O)c2cnc(Nc3ccc(N4CCN(CC5CCN(c6ccc(NC7CCC(=O)NC7=O)cc6F)CC5)CC4)cc3)nc2n1-c1ccc2c(n1)[C@@](C)(O)CCC2 (single isomer, unassigned) [Compound 191] | < 100 | > 75
10 | Cc1cc(Nc2ncc3c(n2)N(C)CN(c2c(Cl)cccc2Cl)C3=O)ccc1N1CCC(CN2CC3(C2)CN(c2ccc4c(c2)C(=O)N(C2CCC(=O)NC2=O)C4=O)C3)CC1 (stereo not drawn) [Compound 32] | 100 to 1000 | 50 to 75
11 | O=C1CCC(Nc2ccc(N3CCC(CN4CCN(c5ccc(Nc6ncc7c(=O)n(-c8c(Cl)cccc8Cl)c8nccn8c7n6)cc5)CC4)CC3)c(F)c2)C(=O)N1 (stereo not drawn) [Compound 83] | < 100 | > 75
12 | C=CCn1c(=O)c2cnc(Nc3ccc(N4CCC(CN5CCC(c6ccc7c(N8CCC(=O)NC8=O)nn(C)c7c6)C(F)(F)C5)CC4)cc3)nc2n1-c1ccc2c(n1)[C@@](O)(CC)CC2 (stereo partly drawn) [Compound 160] | < 100 | 50 to 75
13 | C=CCn1c(=O)c2cnc(Nc3ccc(N4CCC(CN5CCN(c6ccc7c(N8CCC(=O)NC8=O)nn(C)c7c6)CC5)CC4)c(C)c3)nc2n1-c1ccc2c(n1)[C@@](O)(CC)CC2 [Compound 135] | < 100 | > 75
14 | C=CCn1c(=O)c2cnc(Nc3ccc(N4CCC(N(C)C5CCN(c6cccc7c6n(C)c(=O)n7C6CCC(=O)NC6=O)CC5)CC4)cc3)nc2n1-c1cccc(C(C)(C)O)n1 (stereo not drawn) [Compound 98] | < 100 | 50 to 75
15 | C=CCn1c(=O)c2cnc(Nc3ccc(N4CCN(CC5CCN(c6cccc7c(N8CCC(=O)NC8=O)nn(C)c67)CC5)CC4)cc3)nc2n1-c1cccc(C(C)(C)O)n1 [Compound 143] | < 100 | 50 to 75
16 | C=CCn1c(=O)c2cnc(Nc3ccc(N4CCN(CC5CCN(c6ccc(NC7CCC(=O)NC7=O)cc6F)CC5)CC4)cc3)nc2n1-c1ccc2c(n1)[C@@](O)(CC)CCC2 (single isomer, unassigned) [Compound 188] | < 100 | > 75
17 | C=CCn1c(=O)c2cnc(Nc3ccc(N4CCN(C(=O)CC5(O)CCN(c6ccc(NC7CCC(=O)NC7=O)cc6F)CC5)CC4)cc3)nc2n1-c1ccc2c(n1)[C@@](O)(CC)CC2 (stereo partly drawn) [Compound 159] | < 100 | 50 to 75
18 | C=CCn1c(=O)c2cnc(Nc3ccc(N4CCN(CC5CCN(c6ccc(NC7CCC(=O)NC7=O)cc6F)CC5)CC4)c(Cl)c3)nc2n1-c1ccc2c(n1)[C@@](O)(CC)CC2 (stereo partly drawn) [Compound 167] | < 100 | > 75
19 | CN1CN(c2c(Cl)cccc2Cl)C(=O)c2cnc(Nc3ccc4c(c3)CN(CC3CN(c5ccc6c(c5)C(=O)N(C5CCC(=O)NC5=O)C6=O)C3)CC4)nc21 (stereo not drawn) [Compound 20] | > 1000 | < 50
20 | C=CCn1c(=O)c2cnc(Nc3ccc(N4CCN(CCCCc5cccc6c5CN(C5CCC(=O)NC5=O)C6=O)CC4)cc3)nc2n1-c1cccc(C(C)(C)O)n1 (stereo not drawn) [Compound 50] | < 100 | 50 to 75
21 | C=CCn1c(=O)c2cnc(Nc3ccc(N4CCN(CC5CCN(c6ccc(NC7CCC(=O)NC7=O)cc6F)CC5)CC4)cc3)nc2n1-c1ccc2c(n1)[C@@](C)(O)CC2 (stereo partly drawn) [Compound 113] | < 100 | > 75

Row | SMILES | DC50 [nM] | Dmax [%]
22 | C=CCn1c(=O)c2cnc(Nc3ccc4c(c3)CN(CCCNc3ccc5c(c3)C(=O)N(C3CCC(=O)NC3=O)C5=O)CC4)nc2n1-c1cccc(C(C)(C)O)n1 (stereo not drawn) [Compound 23] | > 1000 | < 50
23 | C=CCn1c(=O)c2cnc(Nc3ccc(N4CCN(C5CCN(c6ccc(NC7CCC(=O)NC7=O)cc6F)CC5)CC4)cc3)nc2n1-c1ccc2c(n1)[C@@](O)(CC)CC2 (stereo partly drawn) [Compound 155] | < 100 | > 75
24 | C=CCn1c(=O)c2cnc(Nc3ccc(N4CCN(C5CC6(C5)CN(c5ccc7c(N8CCC(=O)NC8=O)nn(C)c7c5)C6)CC4)cc3)nc2n1-c1ccc2c(n1)[C@@](O)(CC)CC2 [Compound 170] | < 100 | > 75
25 | C=CCn1c(=O)c2cnc(Nc3ccc(N4CCC5(CC4)CCN(C4CN(c6ccc(NC7CCC(=O)NC7=O)cc6F)C4)CC5)cc3)nc2n1-c1ccc2c(n1)[C@@](O)(CC)CC2 (stereo partly drawn) [Compound 171] | < 100 | > 75
26 | C=CCn1c(=O)c2cnc(Nc3ccc(N4CCC(CC(=O)Nc5cccc6c(N7CCC(=O)NC7=O)nn(C)c56)CC4)cc3)nc2n1-c1ccc2c(n1)[C@@](O)(CC)CC2 [Compound 202] | > 1000 | < 50
27 | C=CCn1c(=O)c2cnc(Nc3ccc(N4CCN(CC5CCN(c6c(F)cc(NC7CCC(=O)NC7=O)cc6F)CC5)CC4)cc3)nc2n1-c1ccc2c(n1)[C@@](O)(CC)CC2 (stereo partly drawn) [Compound 175] | < 100 | > 75
28 | C=CCn1c(=O)c2cnc(Nc3ccc(N4CCN(CC5CCN(c6ccc(NC7CCC(=O)NC7=O)cc6F)CC5)CC4)cc3)nc2n1-c1ccc2c(n1)[C@](C)(O)CCC2 (single isomer, unassigned) [Compound 190] | < 100 | > 75
29 | C=CCn1c(=O)c2cnc(Nc3ccc(N4CCC(CN5CCN(c6ccc(NC7CCC(=O)NC7=O)cc6F)CC5)CC4)c(C)c3)nc2n1-c1ccc2c(n1)[C@@](C)(O)CC2 (stereo partly drawn) [Compound 133] | < 100 | > 75
30 | COc1ccc(C(=O)N2CCC(OC3CCN(Cc4ccc(Nc5ncc6c(=O)n(-c7c(Cl)cccc7Cl)c7nccn7c6n5)cc4)CC3)CC2)cc1N1CCC(=O)NC1=O [Compound 60] | > 1000 | < 50
31 | O=C1CCC(N2C(=O)c3ccc(N4CCC(CN5CCc6ccc(Nc7ncc8c(=O)n(-c9c(Cl)cccc9Cl)c9nccn9c8n7)cc6C5)CC4)cc3C2=O)C(=O)N1 (stereo not drawn) [Compound 5] | > 1000 | < 50
32 | C=CCn1c(=O)c2cnc(Nc3ccc(N4CCN(CC5CCN(c6ccc(NC7CCC(=O)NC7=O)cc6F)CC5)CC4)c(C)c3)nc2n1-c1ccc2c(n1)[C@@](C)(O)CC2 (stereo partly drawn) [Compound 131] | < 100 | > 75
33 | C=CCn1c(=O)c2cnc(Nc3ccc(N4CCC(CN5CCN(c6ccc7c(N8CCC(=O)NC8=O)nn(C)c7c6)CC5)CC4)cc3)nc2n1-c1ccc2c(n1)[C@@](C)(O)CC2 [Compound 126] | < 100 | 50 to 75
34 | O=C1CCC(N2C(=O)c3ccc(N4CCC(CN5CCc6cc(Nc7ncc8c(=O)n(-c9c(Cl)cccc9Cl)c9nccn9c8n7)ccc6C5)CC4)cc3C2=O)C(=O)N1 (stereo not drawn) [Compound 1] | > 1000 | < 50
35 | C=CCn1c(=O)c2cnc(Nc3ccc(N4CCN(CC5CCN(c6ccc(NC7CCC(=O)NC7=O)cc6F)CC5)CC4)cc3)nc2n1-c1cccc(C(C)(C)C)n1 (stereo not drawn) [Compound 204] | < 100 | > 75
36 | C=CCn1c(=O)c2cnc(Nc3ccc(N4CCN(CC5CCN(c6ccc(NC7CCC(=O)NC7=O)cc6F)CC5)CC4)c(C)c3)nc2n1-c1ccc2c(n1)[C@](C)(O)CC2 (stereo partly drawn) [Compound 130] | < 100 | > 75
37 | O=C1CCC(N2C(=O)c3ccc(N4CC(CN5CCC(c6ccc(Nc7ncc8c(=O)n(-c9c(Cl)cccc9Cl)c9nccn9c8n7)cc6)CC5)C4)cc3C2=O)C(=O)N1 (stereo not drawn) [Compound 13] | < 100 | 50 to 75
38 | C=CCn1c(=O)c2cnc(Nc3ccc(N4CCC(N5CCN(c6cccc7c6n(C)c(=O)n7C6CCC(=O)NC6=O)CC5)CC4)cc3)nc2n1-c1cccc(C(C)(C)O)n1 (stereo not drawn) [Compound 68] | < 100 | 50 to 75
39 | C=CCn1c(=O)c2cnc(Nc3ccc(N4CCC(N5CC[C@@H](c6ccc(NC7CCC(=O)NC7=O)cc6F)C(F)(F)C5)CC4)cc3)nc2n1-c1ccc2c(n1)[C@@](O)(CC)CC2 (single isomer, unassigned) [Compound 184] | < 100 | > 75
40 | C=CCn1c(=O)c2cnc(Nc3ccc(C4CCN(C5CCN(c6ccc7c(c6)C(=O)N(C6CCC(=O)NC6=O)C7=O)CC5)CC4)cc3)nc2n1-c1ccc2c(n1)[C@@](O)(CC)CC2 (stereo partly drawn) [Compound 75] | < 100 | 50 to 75
41 | C=CCn1c(=O)c2cnc(Nc3ccc(N4CCN(CC5CCN(c6ccc(NC7CCC(=O)NC7=O)cc6F)CC5)CC4)cc3)nc2n1-c1ccc2c(n1)[C@](C)(O)CC2 (stereo partly drawn) [Compound 112] | < 100 | > 75
42 | C=CCn1c(=O)c2cnc(Nc3ccc(N4CCN(CC5CCN(c6ccc(NC7CCC(=O)NC7=O)cc6F)CC5)[C@H](COC)C4)cc3)nc2n1-c1ccc2c(n1)[C@@](O)(CC)CC2 (stereo partly drawn) [Compound 206] | < 100 | > 75
